For test [1], the target named is T1, Adrenergic receptor beta (Rattus norvegicus, UniProt P18090+P10608+P26255). Kind of test: Binding affinity against beta adrenergic receptor from rat lung tissues was determined. The class given is protein assay.
Test [2] deals with T1, Adrenergic receptor beta. Kind of test: Binding affinity against beta adrenergic receptor from rat heart tissues was determined. The class given is protein assay.
The target in test [3] is T1, Adrenergic receptor beta. Kind of test: Binding affinity against the [3H]dihydroalprenolol binding to beta adrenergic receptor of rat lung reticulocytes pretreated with alkylating beta-blockers.
Test [4] addresses T1, Adrenergic receptor beta. Kind of test: Binding affinity against the [3H]dihydroalprenolol binding to beta adrenergic receptor of rat heart reticulocytes pretreated with alkylating beta-blockers.
Test [5] addresses T2, Adrenergic receptor beta (Rattus norvegicus) (UniProt P18090+P10608+P26255). Nature of the test: Percent potency for irreversible blockade of the [3H]dihydroalprenolol binding to beta adrenergic receptor of rat heart reticulocytes pretreated with alkylating beta blockers at concentration of 1 x 10e-7 M.
Test [6] concerns the target T2, Adrenergic receptor beta (Rattus norvegicus). Nature of the test: Percent potency for irreversible blockade of the [3H]dihydroalprenolol binding to beta adrenergic receptor of rat heart reticulocytes pretreated with alkylating beta blockers at concentration of 1 x 10e-6 M.
Test [7] has the same target. Nature of the test: Concentration of binding sites of protein for [3H]dihydroalprenolol binding sites on beta adrenergic receptor of rat heart reticulocytes was determined.
The target of test [8] is T1, Adrenergic receptor beta. Nature of the test: Binding affinity against the [3H]dihydroalprenolol binding sites on beta adrenergic receptor of rat heart reticulocytes pretreated with alkylating beta-blockers.

Usually Ki stands for a dissociation constant, usually derived from enzyme kinetics or from competition with a known ligand. A low value points to a stronger hold on the target. As for `C=CCc1ccccc1OCC(O)CNC1(C)CCC(C(C)(C)NC(=O)CBr)CC1` (stereo unspecified) [BROMOACETYL ALPRENOLOL MENTHANE], the Ki came to 126 nM on Adrenergic receptor beta [1] and 391 nM at Adrenergic receptor beta [2].
Consider `C=CCc1ccccc1OCC(O)CNC(C)(C)C1CCC(C)(NC(=O)CBr)CC1` (stereo unspecified), for which the Ki at Adrenergic receptor beta [1] was found to be 19.8 nM; at Adrenergic receptor beta [2], 31.2 nM.
The Kd is the free concentration of one partner at which half of the binding sites on the other are occupied at equilibrium, for simple one-to-one binding. In the case of `CC1(NCC(O)COc2cccc3[nH]c(C#N)cc23)CCC(C(C)(C)NC(=O)CBr)CC1` (stereo unspecified), the values for the Kd on Adrenergic receptor beta [3] and at Adrenergic receptor beta [4] were 1 nM and 1.6 nM, respectively. Besides, the Ki was 1.49 nM at Adrenergic receptor beta [1] and 0.61 nM on Adrenergic receptor beta [2]. The Blockade in test [5] turned out to be 89%; in test [6], 95%. Further, the Bmax (fM (mg of protein)-1) in test [7] came out at 11.
Turning to `CC1(NC(=O)CBr)CCC(C(C)(C)NCC(O)COc2cccc3[nH]c(C#N)cc23)CC1` (stereo unspecified), the Kd on Adrenergic receptor beta [3] stood at 1.2 nM; on Adrenergic receptor beta [4] it was 1.6 nM. In addition, the Ki on Adrenergic receptor beta [1] amounted to 2.78 nM; on Adrenergic receptor beta [2] it was 1.83 nM.
Consider `CC1(NC(=O)CBr)CCC(C(C)(C)NCC(O)COc2cccc3[nH]ccc23)CC1` (stereo unspecified), for which the figures for the Kd on Adrenergic receptor beta [8] and at Adrenergic receptor beta [3] were 2 nM and 1.4 nM, respectively. Moreover, the figures for the Ki at Adrenergic receptor beta [1] and on Adrenergic receptor beta [2] were 4.46 nM and 22.6 nM, respectively.
As for `CC1(NCC(O)COc2cccc3[nH]ccc23)CCC(C(C)(C)NC(=O)CBr)CC1` (stereo unspecified), the figures for the Ki on Adrenergic receptor beta [1] and at Adrenergic receptor beta [2] were 1.34 nM and 0.46 nM, respectively.

These data come from ChEMBL document CHEMBL1123709, “Affinity labels for beta-adrenoceptors: preparation and properties of alkylating beta-blockers derived from indole” (J Med Chem, 1987).
